# Results published in EPA's ToxValDB 9.5 (doi:10.2903/j.efsa.2010.1523).
# Tests used:
# Apis mellifera = details: acute; duration: 48 hours; dermal; mortality
# Canidae = details: chronic; duration: 1 years; oral; Dog Other; hematological
# Colinus virginianus = details: acute, oral, mortality
# Coturnix japonica = details: reproduction developmental
# Daphnia magna = details: chronic/long-term; duration: 21 days; reproduction
# Mus musculus = details: acute; oral; mortality
# Rattus norvegicus = details: acute; oral; mortality
# Tagia sp. = details: acute; duration: 14 days; mortality
# Aphidius rhopalosiphi = assay: LR50; higher = less toxic; details: not reported; mortality
smiles,measurement,setting,value
Cc1cnc2c(C(=O)O)c(Cl)ccc2c1 [Quinmerac],LD50,Apis mellifera,> 100 µg/piece
same,NOAEL,Canidae,7.9 mg/kg-day
same,LC50,Colinus virginianus; diet,> 933 mg/kg-day
same,LD50,Colinus virginianus,> 2000 mg/kg-day
same,NOEC,Coturnix japonica,173 mg/kg-day
same,NOEC,Daphnia magna,100 mg/L
same,LD50,Mus musculus,> 5000 mg/kg-day
same,LC50,"Oncorhynchus mykiss; acute, duration: 96 hours, mortality",86.8 mg/L
same,NOEC,"Oncorhynchus mykiss; chronic/long-term, duration: 28 days, growth",3.16 mg/L
same,NOEL,Oryctolagus sp.; chronic,100 mg/kg-day
same,NOAEL,"Oryctolagus sp.; developmental, development",30 mg/kg-day
same,LD50,Rattus norvegicus,> 5000 mg/kg-day
same,LC50,Tagia sp.,> 1000 mg/kg
same,LR50,Aphidius rhopalosiphi,> 500 g/ha
